# Results: US20040167226A1, “Methods for the treatment of pain and traumatic injury using benzamides and compositions containing the same” (priority 2002, published 2004)
# Key:
# [1] = system: fluid percussion brain injury; assay: Lateral fluid percussion injury (FPI) model of traumatic brain injury; format: in vivo; conditions: rats
# Procedure: Compound A was tested for efficacy in an animal model of traumatic brain injury. Specifically, Compound A was evaluated in the lateral fluid percussion injury (FPI) model developed by McIntosh (McIntosh T. K., et. al (1989), Neuroscience 28:233-244). This model replicates many of the pathological aspects found in humans who have sustained traumatic brain injury. Furthermore, the damage caused by the injury is sensitive to pharmacological intervention, and thus provides a robust method for preclinical efficacy testing. In this model, animals are subjected to a fluid percussion brain injury, and are then given Compound A shortly thereafter. At specific time points, animals are evaluated using outcome measures that assess cognitive and locomoter deficits that are consequences of the injury. In addition, following behavioral analysis, animals are sacrificed and their brains assessed with respect to a variety of histopathological parameters.
# For these studies, experimental parameters are used that were previously developed by Dr. Tracy McIntosh, Director of the University of Pennsylvania Head Injury Center. In these studies, male rats (350-400 g) are used for injuries. All animals are injured at a moderate/severe injury level (2.5-3.0 atm) via a craniotomy positioned over the left parietal cortex centered between Bregma and Lambda. […] Following behavioral testing, these animals are sacrificed, and their brains are analyzed for tissue damage (cortical volume loss, and neuronal cell counts), and other histopathological readouts.
# The ability of Compound A to restore cognitive deficits in spatial memory and learning is evaluated at 48 hrs post injury using the Morris watermaze paradigm (Smith D. H. et al. (1991), J. Neurotrauma 8(4): 259-269; Schmidt, R. H. et al. (1999), J. Neurotrauma 16(12): 1139-1147). […] In the learning paradigm, the animals are trained to find the platform, and the reduction in latency with increasing number of training sessions is recorded. […]
# [2] = Brain-blood distribution of Compound A in the rat; format: in vivo; conditions: brain / whole blood, single po dose 30 mg/kg, n = 5, read-out: Brain/Blood Ratio (Mean ± SD)
# Procedure: Blood-brain distribution of Compound A was assessed in the mouse, rat, and squirrel monkey by determining the concentrations of Compound A in blood and brain tissue at specific times post dose. Rats and mice received a single po dose of 30 mg/kg. The monkeys received a twice-daily 10 mg/kg po dose of Compound A for a total of 5 weeks prior to sacrifice. Brain to blood ratios for Compound A, as shown below in Table 4, show high penetration of the blood-brain barrier.
smiles,measurement,setting,value
"CC(=O)Nc1ccc(C(=O)NC(C)(C)C)cc1 [Compound A, N-tert-butyl-4-acetamidobenzamide]","effects on the other locomotor tests, beam balance and rotating pole (in words)","[1]; Study Number 1, 20 mg/kg/BID i.p. 7 days, 75% PEG 200",limited
same,effects on the composite neuroscore (in words),"[1]; Study Number 1, 20 mg/kg/BID i.p. 7 days, 75% PEG 200, acute and long term",robust acute and long term effects
same,effects in acute or long term locomotor or cognitive tests (in words),"[1]; Study Number 2, 10 and 20 mg/kg/BID i.p. 5 days, 50% PEG 400 and 25% ethanol",No effects of the compound were observed
same,Kp at 0.5 h,[2]; 0.5 h post-dose,0.71 ± 0.03
same,Kp at 1 h,[2]; 1.0 h post-dose,0.66 ± 0.02
same,Kp at 2 h,[2]; 2.0 h post-dose,0.67 ± 0.03
